Laboratory results taken from patent publication US20200079785A1, “MITOMYCIN C PRODRUG LIPOSOME FORMULATIONS AND USES THEREOF” (MALLINCKRODT LLC, priority 2016, published 2020).
Like-named read-outs stand apart in the source and are kept apart here.

What was measured:
[1] = test system: HT29 colorectal adenocarcinoma cells; assay: In vitro cell kill assay; type: cell-based
Protocol: MCC, MMC prodrugs, and liposomal MMC prodrugs were evaluated in an in vitro cell kill assay. MMC, MMC prodrug, and liposomal MMC prodrug samples were diluted in DPBS as a starting concentration, then serially diluted 1:3 in DPBS (i.e., 70 μL:140 μL). HT29 colorectal adenocarcinoma cells were plated at 100 μL/well in 10% FBS/McCoy's 5a+Pen/Strep media at 5×10^4 cells/mL, based on approximated 24-h doubling time. The plates were incubated at 37° C. overnight to allow the cells to adhere. Next, 10 μL/well treatment dose of MMC, MMC prodrug, or liposomal MMC prodrug was added to the wells, and the plates were incubated at 37° C. […] After a 2-h incubation, the media was removed from the plate and 100 μL/well drug-free media was added before returning to the incubator. After a 24-h incubation, the media was removed from the plate and 100 μL/well drug-free media was added before returning to the incubator. After a 72-h incubation, the media was removed from all of the plates and 100 μL/well drug-free media with 10% Alamar was added to each and returned to the incubator.
Cell viability was measured using WST-1 cell proliferation colorimetric assay or AlamarBlue. 50 mL of 10% WST/McCoy's 5a media was prepared from 5 mL of WST+45 mL of media; 50 mL of 10% Alamar Blue/McCoy's 5a media was prepared from 5 mL of Alamar Blue+45 mL of media. 10% WST/McCoy's 5a media or 10% Alamar Blue/McCoy's 5a was added, and the plates were returned to the incubator to develop, followed by subsequent reading of the fluorescence or absorbance.

[2] = test system: HT29 colorectal adenocarcinoma xenografts
Protocol: The anti-tumor activity of liposomal MMC prodrugs were evaluated in female Hsd:Athymic Nude-Foxn1^nu/nu mice (approximately 25 g) implanted subcutaneous with HT29 colorectal adenocarcinoma cells or (1×10^6). Once tumors reached a median size of 200 mm^3, animals were randomized into five (5) groups, normalized by tumor volume. Animals without tumors were not included in this study. […]
According to NCI euthanasia guidelines, mice were removed from the study if they loss 20% of their initial bodyweight or became moribund or if their tumor volume exceeded 2500 mm^3 or if the tumor ulcerated. Tumor volume was measured with the TumorImager system at least twice per week and calculated with the TumorManager software, and mice were weighed twice per week.
Tumor volume was expressed as mean and median and plotted as a function of time. Animals removed from the study due to excess tumor size beyond 2500 mm^3 had values carried forward as 2500 mm^3 in the median plot only. Groups with less than 50% animals remaining were not carried forward for further tumor analysis. The following parameters were determined from tumor size and survival analysis: tumor growth inhibition (TGI), tumor growth delay (TGD), and median survival. The ratio of treated versus control tumor volume (% T/C) was calculated as: […]
Statistical significance of observed differences between growth curves were evaluated by One-Way ANOVA followed by posthoc test if significant.
In another study, mice bearing HT29 colorectal adenocarcinoma xenografts were given a single intravenous dose of liposomal MMC Prodrugs (MP-3854 or MP-3861), free MMC, or saline and the results are summarized FIGS. 7 and 8 and Table 10 below.
In another study, mice bearing HT29 colorectal adenocarcinoma xenografts were given a single intravenous dose of liposomal MMC Prodrug (W-3854) or saline and the results are summarized FIG. 10 and Table 12 below.
In a further study, mice bearing HT29 colorectal adenocarcinoma xenografts were given a single intravenous dose of liposomal MMC Prodrug (W-3854) or saline and the results are summarized FIG. 11 and Table 13 below.

A549 NSCLC xenografts = assay: In vivo anti-tumor activity, A549 xenografts; design: species or system mice; settings: single IV, 5 mg/kg MMC-eq
[3] = Plasma pharmacokinetics of liposomal MMC prodrugs in mice; type: in vivo
From the text: The plasma pharmacokinetics of liposomal MMC prodrugs and free MMC were studied in mice. The liposomal MMC prodrugs are described in Table 6 below.
Animals were randomized into five (5) groups, each with 18 mice.
Three animals were sacrificed at the appropriate time points post injection. Blood samples were taken for pharmacokinetic analysis at each time point (Table 8). Approximately 0.4 mls of blood was collected, via cardiac puncture under isoflurane anesthesia, into a lithium heparin tube and placed on ice. The samples were spun to obtain the plasma, which were stored in microfuge tubes at −80° C.

[4] = in vivo; cited from earlier work
[5] = Conversion of MMC prodrug to MMC in cysteine solution (HPLC); type: physicochemical; settings: cysteine solution pH 6.95, 37° C., after 2 h
[6] = 2 h drug incubation, read-out: IC50
[7] = 24 h drug incubation, read-out: IC50
[8] = 72 h drug incubation, read-out: IC50
[9] = Table 10, single IV, 3 mg/kg MMC-eq
[10] = Table 10, single IV, 5 mg/kg MMC-eq

CO[C@@]12[C@H](COC(N)=O)C3=C(C(=O)C(C)=C(N)C3=O)N1C[C@H]1[C@@H]2N1C(=O)OCc1ccc(SSCCN2CCCCC2)cc1 [MP-3832, 4-((2-(piperidin-1-yl)ethyl)disulfanyl)benzyl(1aS,8S,8aR,8bS)-6-amino-8-((carbamoyloxy)methyl)-8a-methoxy-5-methyl-4,7-dioxo-1a,4,7,8,8a,8b-hexahydroazirino[2′,3′:3,4]pyrrolo[1,2-α]indole-1(2H)-carboxylate]
IC50 [1, 6]: 4.7 µM | IC50 [1, 7]: 1.44 µM | IC50 [1, 8]: 1.71 µM

CO[C@@]12[C@H](COC(N)=O)C3=C(C(=O)C(C)=C(N)C3=O)N1C[C@@H]1N[C@@H]12 [MMC, Mitomycin C]
% T/C ([2]; Table 9, 2 mpk q7d x3): 72% | % T/C ([2]; Table 9, 3 mpk q7d x3): 13% | % T/C ([2]; Table 9, 5 mpk q7d x3): 5% | % T/C ([2]; Table 9, 5 mpk single): 77% | % T/C [2, 9]: 83% | Median Survival [2, 9]: 48 days | TGD (1000 mm3 Days) [2, 9]: 5.2 days | % T/C [2, 10]: 48% | Median Survival [2, 10]: 54 days | TGD (1000 mm3 Days) [2, 10]: 9.5 days | % T/C (A549 NSCLC xenografts): 90% | Median Survival (A549 NSCLC xenografts): 76 days | TGD (1000 mm3 Days) (A549 NSCLC xenografts): 32 days | IC50 ([1]; Homo sapiens, HT-29, 2 h): 1.83 µM | IC50 ([1]; Homo sapiens, HT-29, 24 h): 0.175 µM | IC50 ([1]; Homo sapiens, HT-29, 48 h): 0.109 µM | IC50 ([1]; Homo sapiens, HT-29, 72 h): 0.199 µM | Half-Life ([3]; Mitomycin C in plasma after high dose of MP-3854 (25 mg/kg MMC-eq)): LLD | Half-Life ([3]; Mitomycin C in plasma after low dose of MP-3854 (5 mg/kg MMC-eq)): LLD | half-life alpha [4]: 8 min | half-life terminal [4]: 48 min

CO[C@@]12[C@H](COC(N)=O)C3=C(C(=O)C(C)=C(N)C3=O)N1C[C@H]1[C@@H]2N1C(=O)OCCSSCCN1CCCCC1 [MP-3827]
IC50 [1, 6]: 5.93 µM | IC50 [1, 7]: 2.64 µM | IC50 ([1]; 48 h drug incubation, read-out: IC50): 1.69 µM | IC50 [1, 8]: 1.29 µM

CO[C@@]12[C@H](COC(N)=O)C3=C(C(=O)C(C)=C(N)C3=O)N1C[C@H]1[C@@H]2N1C(=O)OCCSSCCN1CCN(C)CC1 [MP-3854, 2-((2-(4-methylpiperazin-1-yl)ethyl)disulfanyl)ethyl (1aS,8S,8aR,8bS)-6-amino-8-((carbamoyloxy)methyl)-8a-methoxy-5-methyl-4,7-dioxo-1a,4,7,8,8a,8b-hexahydroazirino[2′,3′:3,4]pyrrolo[1,2-a]indole-1(2H)-carboxylate]
IC50 ([1]; Homo sapiens, HT-29, 2 h drug incubation, read-out: IC50): 41.5 µM | IC50 ([1]; Homo sapiens, HT-29, 24 h drug incubation, read-out: IC50): 4.17 µM | IC50 ([1]; Homo sapiens, HT-29, 72 h drug incubation, read-out: IC50): 3.09 µM | conversion of prodrug [5]: complete conversion | MMC generated ([5]; HPLC 360 nm): 92 Area %
